Data taken from patent US9242970B2 (ACTELION PHARMACEUTICALS LTD., priority 2010, dated 2016).
Where two headings read alike, the source gives them in different places.

Key:
[1] = molecular target: human orexin-1 receptor (Homo sapiens (Human), UniProt O43613); assay: In vitro assay: intracellular calcium measurements (FLIPR), antagonistic activity; format: cell-based; conditions: CHO cells, 3 nM orexin-A, marked values are geometric means of n = 2-6, read-out: IC50 OX1
Procedure: (§1) In Vitro Assay: Intracellular Calcium Measurements:
(§2) Chinese hamster ovary (CHO) cells expressing the human orexin-1 receptor and the human orexin-2 receptor, respectively, are grown in culture medium (Ham F-12 with L-Glutamine) containing 300 µg/ml G418, 100 U/ml penicillin, 100 µg/ml streptomycin and 10% heat inactivated fetal calf serum (FCS). The cells are seeded at 20,000 cells/well into 384-well black clear bottom sterile plates (Greiner). The seeded plates are incubated overnight at 37° C. in 5% CO2.
(§3) Fluorescence is measured for each well at 1 second intervals, and the height of each fluorescence peak is compared to the height of the fluorescence peak induced by 3 nM orexin-A with vehicle in place of antagonist. […] Optimized conditions were achieved by adjustment of pipetting speed and cell splitting regime. The calculated IC50 values may fluctuate depending on the daily cellular assay performance. Fluctuations of this kind are known to those skilled in the art.

[2] = molecular target: human orexin-2 receptor (Homo sapiens (Human), UniProt O43614); assay: as above; format: cell-based
human orexin-2 receptor, sequence (O43614 whole entry): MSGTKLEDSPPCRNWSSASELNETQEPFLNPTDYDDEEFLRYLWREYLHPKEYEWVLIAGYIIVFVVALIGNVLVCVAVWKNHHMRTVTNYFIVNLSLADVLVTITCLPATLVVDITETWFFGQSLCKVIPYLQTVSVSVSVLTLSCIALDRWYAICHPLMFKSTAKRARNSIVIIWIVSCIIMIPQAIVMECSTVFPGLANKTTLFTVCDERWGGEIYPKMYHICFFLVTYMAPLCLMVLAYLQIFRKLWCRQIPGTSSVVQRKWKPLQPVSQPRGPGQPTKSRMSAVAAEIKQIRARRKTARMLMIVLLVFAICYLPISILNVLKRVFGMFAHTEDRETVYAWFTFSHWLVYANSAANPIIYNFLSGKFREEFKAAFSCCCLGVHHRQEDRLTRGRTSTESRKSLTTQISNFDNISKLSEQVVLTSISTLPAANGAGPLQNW
Procedure: as §1, §2, §3

[3] = CHO cells, 3 nM orexin-A, compound incubation 120 min, marked values are geometric means of n = 2-6, read-out: IC50 OX2

human orexin-1 receptor, sequence (O43613 whole entry): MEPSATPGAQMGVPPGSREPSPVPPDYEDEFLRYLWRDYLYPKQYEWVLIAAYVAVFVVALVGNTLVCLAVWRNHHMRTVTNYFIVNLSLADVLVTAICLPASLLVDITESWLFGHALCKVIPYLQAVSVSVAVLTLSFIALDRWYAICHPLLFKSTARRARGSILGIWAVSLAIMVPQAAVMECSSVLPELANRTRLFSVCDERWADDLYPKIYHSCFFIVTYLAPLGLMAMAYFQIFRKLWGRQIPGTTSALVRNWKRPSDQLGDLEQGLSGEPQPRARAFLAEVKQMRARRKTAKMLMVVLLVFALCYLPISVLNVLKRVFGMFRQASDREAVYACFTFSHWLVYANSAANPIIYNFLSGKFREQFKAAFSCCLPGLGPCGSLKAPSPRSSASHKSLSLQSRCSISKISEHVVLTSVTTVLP

SMILES | IC50 ([1]; compound incubation 120 min) | IC50 [2, 3] | IC50 [2] | IC50 ([1]; compound incubation time of 10 min) | IC50 ([2]; CHO cells, 3 nM orexin-A, compound incubation time of 10 min, marked values are geometric means of n = 2-6, read-out: IC50 OX2)
COc1ccc2ccccc2c1[C@@H]1C[C@H](Cl)C(=O)N1Cc1ccc(OC(F)(F)F)cc1 (racemic) [Example 316, rac-(3S*,5S*)-3-chloro-5-(2-methoxynaphthalen-1-yl)-1-(4-(trifluoromethoxy)benzyl)pyrrolidin-2-one] | 329 nM | 1040 nM | – | – | –
COc1ccc(Cl)c(OC)c1[C@@H]1C[C@H](Cl)C(=O)N1Cc1ccc(OC(F)(F)F)cc1 (racemic) [Example 318, rac-(3S*,5S*)-3-chloro-5-(3-chloro-2,6-dimethoxyphenyl)-1-(4-(trifluoromethoxy)benzyl)pyrrolidin-2-one] | 167 nM | 444 nM | – | – | –
COc1ccc(Cl)c(OC)c1[C@@H]1C[C@H](F)C(=O)N1Cc1ccc(OC(F)(F)F)cc1 (racemic) [Example 319, rac-(3S*,5S*)-5-(3-chloro-2,6-dimethoxyphenyl)-3-fluoro-1-(4-(trifluoromethoxy)benzyl)pyrrolidin-2-one] | 971 nM | 1020 nM | – | – | –
COc1cccc(F)c1[C@@H]1C[C@@H](Cl)C(=O)N1Cc1ccc(OC(F)(F)F)cc1 (racemic) [Example 324, rac-(3R*,5S*)-3-chloro-5-(2-fluoro-6-methoxyphenyl)-1-(4-(trifluoromethoxy)benzyl)pyrrolidin-2-one] | 968 nM | 1210 nM | – | – | –
COc1cccc(C)c1[C@@H]1C[C@H](Cl)C(=O)N1Cc1ccc(OC(F)(F)F)cc1 (racemic) [Example 326, rac-(3S*,5S*)-3-chloro-5-(2-methoxy-6-methylphenyl)-1-(4-(trifluoromethoxy)benzyl)pyrrolidin-2-one] | 1520 nM | 126 nM | – | – | –
CCOc1c(F)cccc1[C@@H]1C[C@H](F)C(=O)N1Cc1ccc(OC(F)(F)F)cc1 (racemic) [Example 331, rac-(3S*,5S*)-5-(2-ethoxy-3-fluorophenyl)-3-fluoro-1-(4-(trifluoromethoxy)benzyl)pyrrolidin-2-one] | 1150 nM | 434 nM | – | – | –
COc1ccc(F)c(OC)c1[C@@H]1C[C@H](F)C(=O)N1Cc1ccc(OC(F)(F)F)cc1 (racemic) [Example 332, rac-(3S*,5S*)-3-fluoro-5-(3-fluoro-2,6-dimethoxyphenyl)-1-(4-(trifluoromethoxy)benzyl)pyrrolidin-2-one] | 1020 nM | 296 nM | – | – | –
CCOc1cccc(F)c1[C@@H]1C[C@@H](Cl)C(=O)N1Cc1ccc(OC(F)(F)F)cc1 (racemic) [Example 333, rac-(3R*,5S*)-3-chloro-5-(2-ethoxy-6-fluorophenyl)-1-(4-(trifluoromethoxy)benzyl)pyrrolidin-2-one] | 965 nM | 184 nM | – | – | –
CCOc1cccc(F)c1[C@@H]1C[C@@H](O)C(=O)N1Cc1ccc(OC(F)(F)F)cc1 (racemic) [Example 334, rac-(3R*,5S*)-5-(2-ethoxy-6-fluorophenyl)-3-hydroxy-1-(4-(trifluoromethoxy)benzyl)pyrrolidin-2-one] | 2120 nM | 33 nM | – | – | –
CCOc1cc(F)ccc1[C@@H]1C[C@@H](O)C(=O)N1Cc1ccc(OC(F)(F)F)cc1 (racemic) [Example 335, rac-(3R*,5S*)-5-(2-ethoxy-4-fluorophenyl)-3-hydroxy-1-(4-(trifluoromethoxy)benzyl)pyrrolidin-2-one] | 5350 nM | 1360 nM | – | – | –
CCOc1ccc(F)c(F)c1[C@@H]1C[C@H](F)C(=O)N1Cc1ccc(OC(F)(F)F)cc1 (racemic) [Example 340, rac-(3S*,5S*)-5-(6-ethoxy-2,3-difluorophenyl)-3-fluoro-1-(4-(trifluoromethoxy)benzyl)pyrrolidin-2-one] | 981 nM | 17 nM | – | – | –
CCOc1cc(F)ccc1[C@@H]1C[C@@H](Cl)C(=O)N1Cc1ccc(OC(F)(F)F)cc1 (racemic) [Example 341] | 3340 nM | 1630 nM | – | – | –
CCOc1cccc(F)c1[C@@H]1C[C@H](F)C(=O)N1Cc1ccc(OC(F)(F)F)cc1 (racemic) [Example 342, rac-(3S*,5S*)-5-(2-ethoxy-6-fluorophenyl)-3-fluoro-1-(4-(trifluoromethoxy)benzyl)pyrrolidin-2-one] | 1110 nM | 8 nM | – | – | –
CCOc1cccc(F)c1[C@@H]1C[C@H](Cl)C(=O)N1Cc1ccc(OC(F)(F)F)cc1 (racemic) [Example 343, rac-(3S*,5S*)-3-chloro-5-(2-ethoxy-6-fluorophenyl)-1-(4-(trifluoromethoxy)benzyl)pyrrolidin-2-one] | 603 nM | 15 nM | – | – | –
CCOc1cc(F)ccc1[C@@H]1C[C@H](Cl)C(=O)N1Cc1ccc(OC(F)(F)F)cc1 (racemic) [Example 345] | 745 nM | – | 462 nM | – | –
COc1cccc(OC)c1[C@@H]1C[C@@H](O)C(=O)N1Cc1ccc2oc3ccccc3c2c1 (racemic) [Example 357, rac-(3R*,5S*)-1-(dibenzo[b,d]furan-2-ylmethyl)-5-(2,6-dimethoxyphenyl)-3-hydroxypyrrolidin-2-one] | 20 nM | 4 nM | – | – | –
COc1cccc(OC)c1[C@@H]1C[C@H](Cl)C(=O)N1Cc1ccc2oc3ccccc3c2c1 (racemic) [Example 369, rac-(3S*,5S*)-3-chloro-1-(dibenzo[b,d]furan-2-ylmethyl)-5-(2,6-dimethoxyphenyl)pyrrolidin-2-one] | 2 nM | 5 nM | – | – | –
CCOc1cccc(F)c1[C@@H]1C[C@@H](O)C(=O)N1Cc1ccc(OC(F)(F)F)c(F)c1 (racemic) [Example 428, rac-(3R*,5S*)-5-(2-ethoxy-6-fluorophenyl)-1-(3-fluoro-4-(trifluoromethoxy)benzyl)-3-hydroxypyrrolidin-2-one] | 1710 nM | 53 nM | – | – | –
CCOc1cc(F)cc(F)c1[C@@H]1C[C@@H](O)C(=O)N1Cc1ccc(OC(F)(F)F)cc1 (racemic) [Example 431, rac-(3R*,5S*)-5-(2-ethoxy-4,6-difluorophenyl)-3-hydroxy-1-(4-(trifluoromethoxy)benzyl)pyrrolidin-2-one] | 1490 nM | 255 nM | – | – | –
O=C1[C@H](O)C[C@@H](c2c(F)cccc2OCCF)N1Cc1ccc(OC(F)(F)F)cc1 (racemic) [Example 432, rac-(3R*,5S*)-5-(2-fluoro-6-(2-fluoroethoxy)phenyl)-3-hydroxy-1-(4-(trifluoromethoxy)benzyl)pyrrolidin-2-one] | 3960 nM | 57 nM | – | – | –
CCOc1cccc(F)c1[C@@H]1C[C@@H](O)C(=O)N1Cc1ccccc1OC(F)(F)F (racemic) [Example 433, rac-(3R*,5S*)-5-(2-ethoxy-6-fluorophenyl)-3-hydroxy-1-(2-(trifluoromethoxy)benzyl)pyrrolidin-2-one] | 1710 nM | 3920 nM | – | – | –
CCOc1cccc(F)c1[C@@H]1C[C@H](F)C(=O)N1Cc1ccc(OC(F)(F)F)c(F)c1 (racemic) [Example 434, rac-(3S*,5S*)-5-(2-ethoxy-6-fluorophenyl)-3-fluoro-1-(3-fluoro-4-(trifluoromethoxy)benzyl)pyrrolidin-2-one] | 655 nM | 21 nM | – | – | –
CCOc1cccc(F)c1[C@@H]1C[C@H](Cl)C(=O)N1Cc1ccc(OC(F)(F)F)c(F)c1 (racemic) [Example 435, rac-(3S*,5S*)-3-chloro-5-(2-ethoxy-6-fluorophenyl)-1-(3-fluoro-4-(trifluoromethoxy)benzyl)pyrrolidin-2-one] | 660 nM | 30 nM | – | – | –
CCOc1cccc(Cl)c1[C@@H]1C[C@H](F)C(=O)N1Cc1ccc(OC(F)(F)F)cc1 (racemic) [Example 436, rac-(3S*,5S*)-5-(2-chloro-6-ethoxyphenyl)-3-fuoro-1-(4-(trifluoromethoxy)benzyl)pyrrolidin-2-one] | 965 nM | 31 nM | – | – | –
CCOc1cc(F)cc(F)c1[C@@H]1C[C@H](F)C(=O)N1Cc1ccc(OC(F)(F)F)cc1 (racemic) [Example 438, rac-(3S*,5S*)-5-(2-ethoxy-4,6-difluorophenyl)-3-fluoro-1-(4-(trifluoromethoxy)benzyl)pyrrolidin-2-one] | 921 nM | 37 nM | – | – | –
CCOc1cc(F)cc(F)c1[C@@H]1C[C@H](Cl)C(=O)N1Cc1ccc(OC(F)(F)F)cc1 (racemic) [Example 439, rac-(3S*,5S*)-3-chloro-5-(2-ethoxy-4,6-difluorophenyl)-1-(4-(trifluoromethoxy)benzyl)pyrrolidin-2-one] | 575 nM | 63 nM | – | – | –
COc1cccc(OC)c1C1CCCC(=O)N1Cc1cnc2ccccc2c1 (stereo not drawn) [Example 1, 6-(2,6-dimethoxyphenyl)-1-(quinolin-3-ylmethyl)piperidin-2-one] | – | – | – | 643 nM | 209 nM
COc1cccc(OC)c1C1CCCC(=O)N1Cc1ccc2sc(C)nc2c1 (stereo not drawn) [Example 2, 6-(2,6-dimethoxyphenyl)-1-((2-methylbenzo[d]thiazol-5-yl)methyl)piperidin-2-one] | 26 nM | 13 nM | – | – | –
COc1cccc(OC)c1C1CCCC(=O)N1Cc1ccc2ncccc2c1 (stereo not drawn) [Example 3, 6-(2,6-dimethoxyphenyl)-1-(quinolin-6-ylmethyl)piperidin-2-one] | 154 nM | 1000 nM | – | – | –
COc1cccc(OC)c1C1CCCC(=O)N1Cc1cnc(OC(F)F)c(Cl)c1 (stereo not drawn) [Example 5, 1-((5-chloro-6-(difluoromethoxy)pyridin-3-yl)methyl)-6-(2,6-dimethoxyphenyl)piperidin-2-one] | 224 nM | 38 nM | – | – | –
